Reference: patent US6596718B1, “7-Morpholin-4yl-benzothiazole amide derivatives” (Hoffmann-La Roche Inc., priority 2001, dated 2003)

| Structure (SMILES) | melting point [°C] |
| --- | --- |
| COc1ccc(N2CCOCC2)c2sc(C(=O)NCc3ccc(Cl)cc3)nc12 [Example 7, 4-Methoxy-7-morpholin-4-yl-benzothiazole-2-carboxylic acid 4-chloro-benzylamide] | 175 to 176 |
| COc1ccc(CCNC(=O)c2nc3c(OC)ccc(N4CCOCC4)c3s2)cc1 [Example 68, 4-Methoxy-7-morpholin-4-yl-benzothiazole-2-carboxylic acid [2-(4-methoxy-phenyl)-ethyl]-amide] | 69 to 71 |
| COc1ccc(N2CCOCC2)c2sc(C(=O)NCCc3ccccc3F)nc12 [Example 58, 4-Methoxy-7-morpholin-4-yl-benzothiazole-2-carboxylic acid [2-(2-fluoro-phenyl)-ethyl]-amide] | 151 to 153 |
| COc1cc(OC)cc(C(=O)NNC(=O)c2nc3c(OC)ccc(N4CCOCC4)c3s2)c1 [Example 56, 3,5-Dimethoxy-benzoic acid N′-(4-methoxy-7-morpholin-4-yl-benzothiazole-2-carbonyl)-hydrazide] | 146 to 148 |
| COc1ccc(N2CCOCC2)c2sc(C(=O)Nc3ccccn3)nc12 [Example 19, 4-Methoxy-7-morpholin-4-yl-benzothiazole-2-carboxylic acid pyridin-2-ylamide] | 177 to 181 |
| COc1ccc(N2CCOCC2)c2sc(C(=O)NCC(=O)c3sc4ccccc4c3C)nc12 [Example 76, 4-Methoxy-7-morpholin-4-yl-benzothiazole-2-carboxylic acid [2-(3-methyl-benzo[b]thiophen-2-yl)-2-oxo-ethyl]-amide] | 185 to 187 |
| COc1ccccc1NC(=O)c1nc2c(OC)ccc(N3CCOCC3)c2s1 [Example 12, 4-Methoxy-7-morpholin-4-yl-benzothiazole-2-carboxylic acid (2-methoxy-phenyl)-amide] | 191 |
| COc1ccc(N2CCOCC2)c2sc(C(=O)NNC(=O)c3ccncc3)nc12 [Example 45, Isonicotinic acid N′-(4-methoxy-7-morpholin-4-yl-benzothiazole-2-carbonyl)-hydrazide] | 171 to 174 |
| COc1ccc(N2CCOCC2)c2sc(C(=O)NC(C)Cc3cc4ccccc4o3)nc12 (centres unmarked) [Example 84, 4-Methoxy-7-morpholin-4-yl-benzothiazole-2-carboxylic acid (2-benzofuran-2-yl-1-methyl-ethyl)-amide] | 144 to 146 |
| COc1ccc(CNC(=O)c2nc3c(OC)ccc(N4CCOCC4)c3s2)cc1 [Example 26, 4-Methoxy-7-morpholin-4-yl-benzothiazole-2-carboxylic acid 4-methoxy-benzylamide] | 164 to 168 |
| COc1ccc(N2CCOCC2)c2sc(C(=O)NCCSc3nnc(N)s3)nc12 [Example 83, 4-Methoxy-7-morpholin-4-yl-benzothiazole-2-carboxylic acid [2-(5-amino-[1,3,4]thiadiazol-2-ylsulfanyl)-ethyl]-amide] | 237 to 239 |
| COc1ccc(N2CCOCC2)c2sc(C(=O)NCCN3C(=O)c4ccccc4C3=O)nc12 [Example 34, 4-Methoxy-7-morpholin-4-yl-benzothiazole-2-carboxylic acid [2-(1,3-dioxo-1,3-dihydro-isoindol-2-yl)-ethyl]-amide] | 231 to 233 |
| COc1ccc(N2CCOCC2)c2sc(C(=O)NCCNC(=O)c3ccc(Cl)cc3)nc12 [Example 28, 4-Methoxy-7-morpholin-4-yl-benzothiazole-2-carboxylic acid [2-(4-chloro-benzoylamino)-ethyl]-amide] | 237 to 240 |
| COc1ccc(N2CCOCC2)c2sc(C(=O)NCCCN3C(=O)c4ccccc4C3=O)nc12 [Example 32, 4-Methoxy-7-morpholin-4-yl-benzothiazole-2-carboxylic acid [3-(1,3-dioxo-1,3-dihydro-isoindol-2-yl)-propyl]-amide] | 200 to 202 |
| COc1ccc(N2CCOCC2)c2sc(C(=O)NCCCCN3C(=O)c4ccccc4C3=O)nc12 [Example 33, 4-Methoxy-7-morpholin-4-yl-benzothiazole-2-carboxylic acid [4-(1,3-dioxo-1,3-dihydro-isoindol-2-yl)-butyl]-amide] | 114 to 118 |
| COc1ccccc1C(=O)NCCNC(=O)c1nc2c(OC)ccc(N3CCOCC3)c2s1 [Example 37, 4-Methoxy-7-morpholin-4-yl-benzothiazole-2-carboxylic acid [2-(2-methoxy-benzoylamino)-ethyl]-amide] | 180 to 183 |
| COc1ccc(N2CCOCC2)c2sc(C(=O)NCCc3cccc(NC(C)=O)c3)nc12 [Example 50, 4-Methoxy-7-morpholin-4-yl-benzothiazole-2-carboxylic acid [2-(3-acetylamino-phenyl)-ethyl]-amide] | 165 to 166 |
| COc1ccc(N2CCOCC2)c2sc(C(=O)NCC3(c4ccccc4)CCOCC3)nc12 [Example 30, 4-Methoxy-7-morpholin-4-yl-benzothiazole-2-carboxylic acid (4-phenyl-tetrahydro-pyran-4-ylmethyl)-amide] | 144 to 148 |
| COc1ccc(C(=O)CNC(=O)c2nc3c(OC)ccc(N4CCOCC4)c3s2)cc1 [Example 66, 4-Methoxy-7-morpholin-4-yl-benzothiazole-2-carboxylic acid [2-(4-methoxy-phenyl)-2-oxo-ethyl]-amide] | 176 to 178 |
| COc1ccc(N2CCOCC2)c2sc(C(=O)NNC(=O)c3ccccn3)nc12 [Example 52, Pyridine-2-carboxylic acid N′-(4-methoxy-7-morpholin-4-yl-benzothiazole-2-carbonyl)-hydrazide] | 225 to 226 |
| COc1ccc(N2CCOCC2)c2sc(C(=O)Nc3ccc(F)cc3)nc12 [Example 2, 4-Methoxy-7-morpholin-4-yl-benzothiazole-2-carboxylic Acid (4-Fluoro-phenyl)-amide] | 206 to 208 |
| COc1ccc(N2CCOCC2)c2sc(C(=O)NC(c3ccccc3)c3ccccn3)nc12 (centres unmarked) [Example 67, 4-Methoxy-7-morpholin-4-yl-benzothiazole-2-carboxylic acid (phenyl-pyridin-2-yl-methyl)-amide] | 219 to 221 |
| COc1ccc(N2CCOCC2)c2sc(C(=O)NCCc3cccc(C(F)(F)F)c3)nc12 [Example 60] | 106 to 108 |
| COc1ccc(N2CCOCC2)c2sc(C(=O)NCc3ccc4c(c3)OCO4)nc12 [Example 14, 4-Methoxy-7-morpholin-4-yl-benzothiazole-2-carboxylic acid (benzo[1,3]dioxol-5-ylmethyl)-amide] | 190 to 193 |
| COc1ccc(NC(=O)c2nc3c(OC)ccc(N4CCOCC4)c3s2)cc1 [Example 10, 4-Methoxy-7-morpholin-4-yl-benzothiazole-2-carboxylic acid (4-methoxy-phenyl)-amide] | 148 |

Other lines, results leading:

| melting point [°C] | Structure (SMILES) |
| --- | --- |
| 133 to 134 | COc1ccc(N2CCOCC2)c2sc(C(=O)NCc3ccccc3F)nc12 [Example 21, 4-Methoxy-7-morpholin-4-yl-benzothiazole-2-carboxylic acid 2-fluoro-benzylamide] |
| 178 to 180 | COc1ccc(N2CCOCC2)c2sc(C(=O)NC[C@H]3CCCC[C@H]3O)nc12 (stereo in doubt) [Example 42, 4-Methoxy-7-morpholin-4-yl-benzothiazole-2-carboxylic acid (2-hydroxy-cyclohexylmethyl)-amide] |
| 110 to 115 | COc1ccc(N2CCOCC2)c2sc(C(=O)N[C@H]3CCCC[C@@H]3O)nc12 (stereo in doubt) [Example 72, 4-Methoxy-7-morpholin-4-yl-benzothiazole-2-carboxylic acid (2-hydroxy-cyclohexyl)-amide] |
| 174 to 175 | COc1ccc(N2CCOCC2)c2sc(C(=O)NC3CCCC3)nc12 [Example 8, 4-Methoxy-7-morpholin-4-yl-benzothiazole-2-carboxylic acid cyclopentylamide] |
| 152 to 155 | COc1ccc(N2CCOCC2)c2sc(C(=O)NCC3Cc4ccccc4C(=O)N3)nc12 (centres unmarked) [Example 36, 4-Methoxy-7-morpholin-4-yl-benzothiazole-2-carboxylic acid (1-oxo-1,2,3,4-tetrahydro-isoquinolin-3-ylmethyl)-amide] |
| 152 to 153 | COc1ccc(N2CCOCC2)c2sc(C(=O)NCC3CC3)nc12 [Example 24, 4-Methoxy-7-morpholin-4-yl-benzothiazole-2-carboxylic acid cyclopropylmethyl-amide] |
| 146 to 147 | COc1ccc(N2CCOCC2)c2sc(C(=O)NC3CCCCC3)nc12 [Example 5, 4-Methoxy-7-morpholin-4-yl-benzothiazole-2-carboxylic acid cyclohexylamide] |
| 207 to 209 | COc1ccc(N2CCOCC2)c2sc(C(=O)NCc3ccncc3)nc12 [Example 31, 4-Methoxy-7-morpholin-4-yl-benzothiazole-2-carboxylic acid (pyridin-4-ylmethyl)-amide] |
| 171 to 172 | COc1ccc(N2CCOCC2)c2sc(C(=O)NCC3CCCO3)nc12 (centres unmarked) [Example 41, 4-Methoxy-7-morpholin-4-yl-benzothiazole-2-carboxylic acid (tetrahydro-furan-2-ylmethyl)-amide] |
| 156 to 158 | COc1ccc(N2CCOCC2)c2sc(C(=O)NCc3ccccc3)nc12 [Example 3, 4-Methoxy-7-morpholin-4-yl-benzothiazole-2-carboxylic Acid Benzylamide] |
| 152 to 153 | COc1ccc(N2CCOCC2)c2sc(C(=O)NCc3cccc(F)c3)nc12 [Example 20, 4-Methoxy-7-morpholin-4-yl-benzothiazole-2-carboxylic acid 3-fluoro-benzylamide] |
| 229 to 232 | COc1ccc(N2CCOCC2)c2sc(C(=O)NCC(=O)c3ccsc3)nc12 [Example 79, 4-Methoxy-7-morpholin-4-yl-benzothiazole-2-carboxylic acid (2-oxo-2-thiophen-3-yl-ethyl)-amide] |
| 150 to 151 | COc1ccc(N2CCOCC2)c2sc(C(=O)NCC3CCCCC3)nc12 [Example 35, 4-Methoxy-7-morpholin-4-yl-benzothiazole-2-carboxylic acid cyclohexylmethyl-amide] |
